Source: patent publication US9822126B1, “Substituted 1,2,3-triazol-1-yl-methyl-2,3-dihydro-2-methyl-6-nitroimidazo[2,1-b]oxazoles as anti-mycobacterial agents and a process for the preparation thereof” (priority 2014, dated 2017)
Converted amounts (≈) assume the structure as drawn. Where two headings read alike, the source gives them in different places.

Columns and labels:
Type in all cases: cell-based
[1] = tested on: M. tuberculosis H37Rv (ATCC 27294); experiment: MIC by broth dilution against M. tuberculosis H37Rv (replicating); details: Mycobacterium tuberculosis
[2] = tested on: non-replicating stages of M. tuberculosis; experiment: MIC against non-replicating M. tuberculosis; details: Mycobacterium tuberculosis, read-out: MIC Non-replicating strain
[3] = tested on: macrophage J774 cells line; experiment: Cytotoxicity assay (MTT) in macrophage J774 cells; details: macrophage J774, 24 hrs incubation, tested at 40 μg/ml
Procedure: The study was carried out using macrophage J774 cells line (ATCC-USA). Cells were grown in Rosewell Park Memorial Institute Medium (RPMI) containing 10% fetal calf serum (FCS) and supplemented with 75 mg/liter penicillin, 100 mg/liter streptomycin, 110 mg/liter Sodium pyruvate, 2.38 gm/liter HEPES, 0.05 mM 2 β-mercaptoethanol, and 2 gm/liter NaHCO3, in a humidified atmosphere in 5% CO2 at 37° C., and were sub-cultured at 1:4 ratio once a week.
Cells were plated at a density of 3×10^4 cells/cm^2 and maintained in culture medium for 12 hours. Cells were seeded onto 96-well flat bottom plates and FCS was reduced to 5% for the experiment. Stock solutions of compounds 9 to 37 were prepared fresh to avoid oxidation. Cells were incubated with the compounds (40 μg/ml) for 24 hrs.
After the completion of incubation, the medium was removed and cell viability was evaluated by assaying for the ability of functional mitochondria to catalyze the reduction of 3-(4,5-dimethylthiazol-2-yl)-2,5-diphenyltetrazolium bromide (MTT) to form formazan salt by mitochondrial dehydrogenases, and determined by Elisa reader at 450 nm (Multiskan Spectrum; Thermo Electron Corporation, USA). Percentage cytotoxicity was calculated with respect to the untreated cells.

[4] = 504 h, broth dilution, 37° C. for 3-weeks, read visually, replicating stage, read-out: MIC M. tb H37Rv

| Structure (SMILES) | MIC [1, 4] | MIC [2] | Cytotoxicity [3] | MIC ([1]; read-out: MIC value) |
| --- | --- | --- | --- | --- |
| C[C@]1(Cn2cc(-c3ccc(OC(F)(F)F)cc3)nn2)Cn2cc([N+](=O)[O-])nc2O1 [I1, (R)-2-Methyl-6-nitro-2-((4-(4-(trifluoromethoxy)phenyl)-1H-1,2,3-triazol-1-yl)methyl)-2,3-dihydroimidazo[2,1-b]oxazole] | 2 µg/mL (≈ 4.87 µM) | 4 µg/mL (≈ 9.75 µM) | >40 µg/mL | – |
| C[C@]1(Cn2cc(-c3ccc(C(F)(F)F)cc3)nn2)Cn2cc([N+](=O)[O-])nc2O1 [I2, (R)-2-Methyl-6-nitro-2-((4-(4-(trifluoromethyl)phenyl)-1H-1,2,3-triazol-1-yl)methyl)-2,3-dihydroimidazo[2,1-b]oxazole] | 2 µg/mL (≈ 5.07 µM) | 8 µg/mL (≈ 20.3 µM) | >40 µg/mL | – |
| C[C@]1(Cn2cc(-c3ccc(F)cc3)nn2)Cn2cc([N+](=O)[O-])nc2O1 [I3, (R)-2-((4-(4-Fluorophenyl)-1H-1,2,3-triazol-1-yl)methyl)-2-methyl-6nitro-2,3-dihydro imidazo[2,1-b]oxazole] | 1 µg/mL (≈ 2.9 µM) | 2 µg/mL (≈ 5.81 µM) | >40 µg/mL | – |
| Cc1cc(-c2cn(C[C@@]3(C)Cn4cc([N+](=O)[O-])nc4O3)nn2)ccc1F [I4, (R)-2-((4-(4-Fluoro-3-methylphenyl)-1H-1,2,3-triazol-1-yl)methyl)-2-methyl-6-nitro-2,3-dihydroimidazo[2,1-b]oxazole] | 2 µg/mL (≈ 5.58 µM) | 4 µg/mL (≈ 11.2 µM) | >40 µg/mL | – |
| C[C@]1(Cn2cc(-c3ccc(F)cc3F)nn2)Cn2cc([N+](=O)[O-])nc2O1 [I5, (R)-2-((4-(2,4-Difluorophenyl)-1H-1,2,3-triazol-1-yl)methyl)-2-methyl-6-nitro-2,3-dihydroimidazo[2,1-b]oxazole] | 1 µg/mL (≈ 2.76 µM) | 8 µg/mL (≈ 22.1 µM) | >40 µg/mL | – |
| C[C@]1(Cn2cc(-c3ccc(Oc4ccccc4)cc3)nn2)Cn2cc([N+](=O)[O-])nc2O1 [I6, (R)-2-Methyl-6-nitro-2-((4-(4-phenoxyphenyl)-1H-1,2,3-triazol-1-yl)methyl)-2,3-dihydroimidazo[2,1-b]oxazole] | 2 µg/mL (≈ 4.78 µM) | 2 µg/mL (≈ 4.78 µM) | >40 µg/mL | – |
| CCCCCc1cn(C[C@@]2(C)Cn3cc([N+](=O)[O-])nc3O2)nn1 [I7, (R)-2-[(4-Pentyl-1H-1,2,3-triazol-1-yl)methyl]-2,3-dihydro-2-methyl-6-nitroimidazo[2,1-b]oxazole] | 2 µg/mL (≈ 6.24 µM) | 4 µg/mL (≈ 12.5 µM) | >40 µg/mL | – |
| C[C@]1(Cn2cc(COc3ccc(OC(F)(F)F)cc3)nn2)Cn2cc([N+](=O)[O-])nc2O1 [I8, (R)-2-Methyl-6-nitro-2-((4-((4-(trifluoromethoxy)phenoxy)methyl)-1H-1,2,3-triazol-1-yl)methyl)-2,3-dihydroimidazo[2,1-b]oxazole] | 2 µg/mL (≈ 4.54 µM) | 4 µg/mL (≈ 9.08 µM) | >40 µg/mL | – |
| C[C@]1(Cn2cc(COc3ccc(C(F)(F)F)cc3)nn2)Cn2cc([N+](=O)[O-])nc2O1 [I9, (R)-2-Methyl-6-nitro-2-((4-((4-(trifluoromethyl)phenoxy)methyl)-1H-1,2,3-triazol-1-yl)methyl)-2,3-dihydroimidazo[2,1-b]oxazole] | 1 µg/mL (≈ 2.36 µM) | 2 µg/mL (≈ 4.71 µM) | >40 µg/mL | – |
| C[C@]1(Cn2cc(COc3cccc(Cl)c3)nn2)Cn2cc([N+](=O)[O-])nc2O1 [I10, (R)-2-((4-((3-Chlorophenoxy)methyl)-1H-1,2,3-triazol-1-yl)methyl)-2-methyl-6-nitro-2,3-dihydroimidazo[2,1-b]oxazole] | 0.5 µg/mL (≈ 1.28 µM) | 1 µg/mL (≈ 2.56 µM) | >40 µg/mL | < 1 µg/mL |
| C[C@]1(Cn2cc(COc3ccc(Br)cc3)nn2)Cn2cc([N+](=O)[O-])nc2O1 [I11, (R)-2-((4-((4-Bromophenoxy)methyl)-1H-1,2,3-triazol-1-yl)methyl)-2-methyl-6-nitro-2,3-dihydroimidazo[2,1-b]oxazole] | 0.12 µg/mL (≈ 0.276 µM) | 0.25 µg/mL (≈ 0.574 µM) | >40 µg/mL | < 1 µg/mL |
| Cc1ccc(OCc2cn(C[C@@]3(C)Cn4cc([N+](=O)[O-])nc4O3)nn2)cc1 [I12, (R)-2-Methyl-6-nitro-2-((4-((p-tolyloxy)methyl)-1H-1,2,3-triazol-1-yl)methyl)-2,3-dihydroimidazo[2,1-b]oxazole] | 1 µg/mL (≈ 2.7 µM) | 2 µg/mL (≈ 5.4 µM) | >40 µg/mL | – |
| Cc1cccc(OCc2cn(C[C@@]3(C)Cn4cc([N+](=O)[O-])nc4O3)nn2)c1 [I13, (R)-2-Methyl-6-nitro-2-((4-((m-tolyloxy)methyl)-1H-1,2,3-triazol-1-yl)methyl)-2,3-dihydroimidazo[2,1-b]oxazole] | 0.5 µg/mL (≈ 1.35 µM) | 0.5 µg/mL (≈ 1.35 µM) | >40 µg/mL | < 1 µg/mL |
| Cc1ccccc1OCc1cn(C[C@@]2(C)Cn3cc([N+](=O)[O-])nc3O2)nn1 [I14, (R)-2-Methyl-6-nitro-2-((4-((o-tolyloxy)methyl)-1H-1,2,3-triazol-1-yl)methyl)-2,3-dihydroimidazo[2,1-b]oxazole] | 0.5 µg/mL (≈ 1.35 µM) | 2 µg/mL (≈ 5.4 µM) | >40 µg/mL | < 1 µg/mL |
| CCc1ccc(OCc2cn(C[C@@]3(C)Cn4cc([N+](=O)[O-])nc4O3)nn2)cc1 [I15, (R)-2-((4-((4-Ethylphenoxy)methyl)-1H-1,2,3-triazol-1-yl)methyl)-2-methyl-6-nitro-2,3-dihydroimidazo[2,1-b]oxazole] | 2 µg/mL (≈ 5.2 µM) | 2 µg/mL (≈ 5.2 µM) | >40 µg/mL | – |
| C[C@]1(Cn2cc(COc3cccc(F)c3)nn2)Cn2cc([N+](=O)[O-])nc2O1 [I16, (R)-2-((4-((3-Fluorophenoxy)methyl)-1H-1,2,3-triazol-1-yl)methyl)-2-methyl-6-nitro-2,3-dihydroimidazo[2,1-b]oxazole] | 1 µg/mL (≈ 2.67 µM) | 2 µg/mL (≈ 5.34 µM) | >40 µg/mL | – |
| C[C@]1(Cn2cc(COc3ccccc3F)nn2)Cn2cc([N+](=O)[O-])nc2O1 [I17, (R)-2-((4-((2-Fluorophenoxy)methyl)-1H-1,2,3-triazol-1-yl)methyl)-2-methyl-6-nitro-2,3-dihydroimidazo[2,1-b]oxazole] | 0.25 µg/mL (≈ 0.668 µM) | 0.5 µg/mL (≈ 1.34 µM) | >40 µg/mL | < 1 µg/mL |
| CC(C)c1ccc(OCc2cn(C[C@@]3(C)Cn4cc([N+](=O)[O-])nc4O3)nn2)cc1 [I18, (R)-2-((4-((4-Isopropylphenoxy)methyl)-1H-1,2,3-triazol-1-yl)methyl)-2-methyl-6-nitro-2,3-dihydroimidazo[2,1-b]oxazole] | 0.5 µg/mL (≈ 1.25 µM) | 1 µg/mL (≈ 2.51 µM) | >40 µg/mL | < 1 µg/mL |
| C[C@]1(Cn2cc(COc3ccccn3)nn2)Cn2cc([N+](=O)[O-])nc2O1 [I19, (R)-2-Methyl-6-nitro-2-((4-((pyridin-2-yloxy)methyl)-1H-1,2,3-triazol-1-yl)methyl)-2,3-dihydroimidazo[2,1-b]oxazole] | 1 µg/mL (≈ 2.8 µM) | 2 µg/mL (≈ 5.6 µM) | >40 µg/mL | – |
| Cc1ccc(SCc2cn(C[C@@]3(C)Cn4cc([N+](=O)[O-])nc4O3)nn2)cc1 [I20, (R)-2-Methyl-6-nitro-2-((4-((p-tolylthio)methyl)-1H-1,2,3-triazol-1-yl)methyl)-2,3-dihydroimidazo[2,1-b]oxazole] | 2 µg/mL (≈ 5.18 µM) | 1 µg/mL (≈ 2.59 µM) | >40 µg/mL | – |
| Cc1ccc(OCCc2cn(C[C@@]3(C)Cn4cc([N+](=O)[O-])nc4O3)nn2)cc1 [I21, (R)-2-Methyl-6-nitro-2-((4-(2-(p-tolyloxy)ethyl)-1H-1,2,3-triazol-1-yl)methyl)-2,3-dihydroimidazo[2,1-b]oxazole] | 0.25 µg/mL (≈ 0.65 µM) | 0.25 µg/mL (≈ 0.65 µM) | >40 µg/mL | < 1 µg/mL |
| C[C@]1(Cn2cc(CN3CCOCC3)nn2)Cn2cc([N+](=O)[O-])nc2O1 [I22, (R)-2-Methyl-2-((4-(morpholinomethyl)-1H-1,2,3-triazol-1-yl)methyl)-6-nitro-2,3-dihydroimidazo[2,1-b]oxazole] | 2 µg/mL (≈ 5.72 µM) | 1 µg/mL (≈ 2.86 µM) | >40 µg/mL | – |
